AUC(0-inf), AUC(0-t) and Cmax data for one molecule are collected here from patent publication US12194153B2, “Amorphous dispersion of 4-methyl-3-quinolin-3-ylethynyl-benzoic acid n′-(2-chloro-6-methyl-benzoyl) hydrazide” (SUN PHARMA ADVANCED RESEARCH COMPANY LIMITED, priority 2017, dated 2025).

This series is described as follows: Oral bioavailability study in dogs (plasma levels of compound of formula I). It is filed as in vivo. Particulars: dog; oral administration to dogs; plasma level of compound of formula I. As to the method: Suitable amount of amorphous dispersion of Example I and the crystalline form of compound of formula I suspended in a vehicle were administered orally to dogs.
Blood samples were withdrawn at various time intervals and the plasma levels of compound of formula I were recorded. The Cmax, AUC0 to t and AUC0-∞, in plasma are tabulated below.

For the molecule `Cc1ccc(C(=O)NNC(=O)c2c(C)cccc2Cl)cc1C#Cc1cnc2ccccc2c1` [Compound of formula I in a vehicle, 4-Methyl-3-quinolin-3-ylethynyl-benzoic acid N′-(2-chloro-6-methyl-benzoyl)hydrazide], the AUC(0-inf) is 1190 ng·h/mL, the exposure AUC(0-t) worked out at 1070 ng·h/mL and the Cmax worked out at 282 ng/mL.
